Assay results taken from PubChem BioAssay (NCI).
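Protocol summary: plate cells (96-well), add compound at 5 concentrations, incubate 48 h, interpolate endpoints linearly. At the TGI there is no net growth.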

Columns and labels:
Test in all cases: DTP human tumour cell line panel, 48 h
786-0 renal = tested on: 786-0 renal
A498 renal = tested on: A498 renal
A549 NSCLC = tested on: A549 NSCLC
ACHN renal = tested on: ACHN renal
CAKI-1 renal = tested on: CAKI-1 renal
CCRF-CEM leukemia = tested on: CCRF-CEM leukemia
COLO 205 colon = tested on: COLO 205 colon
DLD-1 colon = tested on: DLD-1 colon
DMS 114 small cell lung = tested on: DMS 114 small cell lung
DMS 273 small cell lung = tested on: DMS 273 small cell lung
EKVX NSCLC = tested on: EKVX NSCLC
HCC-2998 colon = tested on: HCC-2998 colon
HCT-116 colon = tested on: HCT-116 colon
HCT-15 colon = tested on: HCT-15 colon
HL-60(TB) leukemia = tested on: HL-60(TB) leukemia
HOP-18 NSCLC = tested on: HOP-18 NSCLC
HOP-62 NSCLC = tested on: HOP-62 NSCLC
HOP-92 NSCLC = tested on: HOP-92 NSCLC
HT29 colon = tested on: HT29 colon
IGROV1 ovarian = tested on: IGROV1 ovarian
K-562 leukemia = tested on: K-562 leukemia
KM12 colon = tested on: KM12 colon
KM20L2 colon = tested on: KM20L2 colon
LOX IMVI melanoma = tested on: LOX IMVI melanoma
LXFL 529 NSCLC = tested on: LXFL 529 NSCLC
M14 melanoma = tested on: M14 melanoma
M19-MEL melanoma = tested on: M19-MEL melanoma
MALME-3M melanoma = tested on: MALME-3M melanoma
MOLT-4 leukemia = tested on: MOLT-4 leukemia
NCI-H226 lung = tested on: NCI-H226 lung
NCI-H23 lung = tested on: NCI-H23 lung
NCI-H460 lung = tested on: NCI-H460 lung
NCI-H522 lung = tested on: NCI-H522 lung
OVCAR-3 ovarian = tested on: OVCAR-3 ovarian
OVCAR-4 ovarian = tested on: OVCAR-4 ovarian
OVCAR-5 ovarian = tested on: OVCAR-5 ovarian
OVCAR-8 ovarian = tested on: OVCAR-8 ovarian
RPMI-8226 leukemia = tested on: RPMI-8226 leukemia
RXF 393 renal = tested on: RXF 393 renal
RXF-631 renal = tested on: RXF-631 renal
SF-268 CNS = tested on: SF-268 CNS
SF-295 CNS = tested on: SF-295 CNS
SF-539 CNS = tested on: SF-539 CNS
SK-MEL-2 melanoma = tested on: SK-MEL-2 melanoma
SK-MEL-28 melanoma = tested on: SK-MEL-28 melanoma
SK-MEL-5 melanoma = tested on: SK-MEL-5 melanoma
SK-OV-3 ovarian = tested on: SK-OV-3 ovarian
SN12C renal = tested on: SN12C renal
SNB-19 CNS = tested on: SNB-19 CNS
SNB-75 CNS = tested on: SNB-75 CNS
SNB-78 CNS = tested on: SNB-78 CNS
SR leukemia = tested on: SR leukemia
SW-620 colon = tested on: SW-620 colon
TK-10 renal = tested on: TK-10 renal
U251 CNS = tested on: U251 CNS
UACC-257 melanoma = tested on: UACC-257 melanoma
UACC-62 melanoma = tested on: UACC-62 melanoma
UO-31 renal = tested on: UO-31 renal
XF 498 CNS = tested on: XF 498 CNS
DU-145 prostate = tested on: DU-145 prostate
HS 578T breast = tested on: HS 578T breast
MCF7 breast = tested on: MCF7 breast
MDA-MB-231 breast = tested on: MDA-MB-231 breast
MDA-MB-435 = tested on: MDA-MB-435
MDA-N = tested on: MDA-N
PC-3 prostate = tested on: PC-3 prostate
T-47D breast = tested on: T-47D breast

Cn1cnc([N+](=O)[O-])c1Sc1nc2ccccc2o1
TGI (786-0 renal): 29.3 µM
TGI (A498 renal): 45.2 µM
TGI (A549 NSCLC): 75.4 µM
TGI (ACHN renal): 24.9 µM
TGI (CAKI-1 renal): 6.19 µM
TGI (CCRF-CEM leukemia): 12.8 µM
TGI (COLO 205 colon): 3.4 µM
TGI (DLD-1 colon): 16.6 µM
TGI (DMS 114 small cell lung): 4.89 µM
TGI (DMS 273 small cell lung): 9.93 µM
TGI (EKVX NSCLC): 15.3 µM
TGI (HCC-2998 colon): 24.9 µM
TGI (HCT-116 colon): 11.6 µM
TGI (HCT-15 colon): 11.2 µM
TGI (HL-60(TB) leukemia): 3.79 µM
TGI (HOP-18 NSCLC): 1.36 µM
TGI (HOP-62 NSCLC): > 94.4 µM
TGI (HOP-92 NSCLC): 12.4 µM
TGI (HT29 colon): 12.9 µM
TGI (IGROV1 ovarian): 27.7 µM
TGI (K-562 leukemia): 11.3 µM
TGI (KM12 colon): 20.5 µM
TGI (KM20L2 colon): 10.1 µM
TGI (LOX IMVI melanoma): 26.1 µM
TGI (LXFL 529 NSCLC): 12.9 µM
TGI (M14 melanoma): 24.4 µM
TGI (M19-MEL melanoma): 23.7 µM
TGI (MALME-3M melanoma): 16.6 µM
TGI (MOLT-4 leukemia): 8.99 µM
TGI (NCI-H226 lung): 30.9 µM
TGI (NCI-H23 lung): 17.1 µM
TGI (NCI-H460 lung): > 71.6 µM
TGI (NCI-H522 lung): 4.42 µM
TGI (OVCAR-3 ovarian): 14.7 µM
TGI (OVCAR-4 ovarian): 15 µM
TGI (OVCAR-5 ovarian): 19.4 µM
TGI (OVCAR-8 ovarian): 10 µM
TGI (RPMI-8226 leukemia): 22.5 µM
TGI (RXF 393 renal): 22.1 µM
TGI (RXF-631 renal): 15.1 µM
TGI (SF-268 CNS): 14.4 µM
TGI (SF-295 CNS): 74.9 µM
TGI (SF-539 CNS): 24.1 µM
TGI (SK-MEL-2 melanoma): 52.9 µM
TGI (SK-MEL-28 melanoma): 18.6 µM
TGI (SK-MEL-5 melanoma): 26.5 µM
TGI (SK-OV-3 ovarian): > 81.2 µM
TGI (SN12C renal): 18.5 µM
TGI (SNB-19 CNS): 30.9 µM
TGI (SNB-75 CNS): 32.9 µM
TGI (SNB-78 CNS): 32.3 µM
TGI (SR leukemia): 8.14 µM
TGI (SW-620 colon): 14.3 µM
TGI (TK-10 renal): 22.9 µM
TGI (U251 CNS): 26.2 µM
TGI (UACC-257 melanoma): 19.8 µM
TGI (UACC-62 melanoma): 25.5 µM
TGI (UO-31 renal): 24.8 µM
TGI (XF 498 CNS): 19.7 µM

O=C(CN(Cc1ccccc1)Cc1ccccc1)N1CCc2c([nH]c3ccccc23)C1c1cccnc1 (configuration not stated)
TGI (786-0 renal): 33.4 µM
TGI (A498 renal): 61.5 µM
TGI (A549 NSCLC): > 100 µM
TGI (ACHN renal): > 100 µM
TGI (CAKI-1 renal): > 100 µM
TGI (CCRF-CEM leukemia): 41.4 µM
TGI (DLD-1 colon): > 100 µM
TGI (DMS 114 small cell lung): 72.8 µM
TGI (DMS 273 small cell lung): 82.8 µM
TGI (EKVX NSCLC): > 100 µM
TGI (HCC-2998 colon): > 100 µM
TGI (HCT-116 colon): 16.2 µM
TGI (HCT-15 colon): > 100 µM
TGI (HL-60(TB) leukemia): 4.17 µM
TGI (HOP-18 NSCLC): > 100 µM
TGI (HOP-62 NSCLC): > 100 µM
TGI (HOP-92 NSCLC): 12.8 µM
TGI (HT29 colon): 19.7 µM
TGI (IGROV1 ovarian): > 100 µM
TGI (K-562 leukemia): > 100 µM
TGI (KM12 colon): 26.3 µM
TGI (KM20L2 colon): 25.5 µM
TGI (LOX IMVI melanoma): 39.5 µM
TGI (LXFL 529 NSCLC): > 100 µM
TGI (M14 melanoma): 14.2 µM
TGI (M19-MEL melanoma): 31.4 µM
TGI (MOLT-4 leukemia): 6.88 µM
TGI (NCI-H23 lung): 79.3 µM
TGI (NCI-H460 lung): 89.9 µM
TGI (NCI-H522 lung): 73.6 µM
TGI (OVCAR-3 ovarian): 34 µM
TGI (OVCAR-4 ovarian): > 100 µM
TGI (OVCAR-5 ovarian): 34.7 µM
TGI (OVCAR-8 ovarian): > 100 µM
TGI (RPMI-8226 leukemia): 4.53 µM
TGI (SF-268 CNS): > 100 µM
TGI (SF-295 CNS): > 100 µM
TGI (SF-539 CNS): 26.6 µM
TGI (SK-MEL-28 melanoma): > 100 µM
TGI (SK-MEL-5 melanoma): 20.1 µM
TGI (SK-OV-3 ovarian): > 100 µM
TGI (SN12C renal): 8.64 µM
TGI (SNB-19 CNS): > 100 µM
TGI (SNB-75 CNS): 81.9 µM
TGI (SNB-78 CNS): > 100 µM
TGI (SR leukemia): 30.6 µM
TGI (SW-620 colon): > 100 µM
TGI (TK-10 renal): > 100 µM
TGI (U251 CNS): 26.7 µM
TGI (UACC-257 melanoma): > 100 µM
TGI (UACC-62 melanoma): 30.7 µM
TGI (UO-31 renal): 9.54 µM
TGI (XF 498 CNS): 65.8 µM

CCC(C)C(=O)O[C@H]1C(=O)O[C@@H]2C[C@H]3C(C)=CC(=O)[C@@H](O)[C@]3(C)[C@H]3[C@@H](O)[C@H](O)[C@@]4(C)OC[C@]32[C@@H]14 (some centres not stated)
TGI (786-0 renal): 0.645 µM
TGI (A498 renal): < 0.01 µM
TGI (A549 NSCLC): 10.7 µM
TGI (ACHN renal): 0.566 µM
TGI (COLO 205 colon): 0.278 µM
TGI (DLD-1 colon): 0.317 µM
TGI (DMS 114 small cell lung): 0.0431 µM
TGI (DMS 273 small cell lung): 0.0468 µM
TGI (DU-145 prostate): < 0.0164 µM
TGI (HCC-2998 colon): < 0.024 µM
TGI (HCT-116 colon): < 0.01 µM
TGI (HCT-15 colon): 0.071 µM
TGI (HL-60(TB) leukemia): < 0.01 µM
TGI (HOP-18 NSCLC): 0.596 µM
TGI (HS 578T breast): < 0.01 µM
TGI (HT29 colon): 0.0272 µM
TGI (IGROV1 ovarian): 0.0889 µM
TGI (K-562 leukemia): 0.214 µM
TGI (KM12 colon): 0.138 µM
TGI (KM20L2 colon): 0.31 µM
TGI (LOX IMVI melanoma): < 0.0246 µM
TGI (LXFL 529 NSCLC): 0.123 µM
TGI (M14 melanoma): < 0.0216 µM
TGI (M19-MEL melanoma): 0.0909 µM
TGI (MALME-3M melanoma): < 0.024 µM
TGI (MCF7 breast): < 0.01 µM
TGI (MDA-MB-231 breast): 0.388 µM
TGI (MDA-MB-435): < 0.01 µM
TGI (MDA-N): 0.0543 µM
TGI (MOLT-4 leukemia): 0.267 µM
TGI (NCI-H226 lung): < 0.0259 µM
TGI (NCI-H23 lung): < 0.01 µM
TGI (NCI-H460 lung): < 0.0185 µM
TGI (NCI-H522 lung): 0.0773 µM
TGI (OVCAR-3 ovarian): 0.0906 µM
TGI (OVCAR-4 ovarian): < 0.01 µM
TGI (OVCAR-5 ovarian): 0.0942 µM
TGI (OVCAR-8 ovarian): < 0.0302 µM
TGI (PC-3 prostate): 0.0143 µM
TGI (RPMI-8226 leukemia): < 0.0266 µM
TGI (RXF 393 renal): < 0.0345 µM
TGI (SF-268 CNS): 0.454 µM
TGI (SF-539 CNS): 0.0334 µM
TGI (SK-MEL-2 melanoma): < 0.0507 µM
TGI (SK-MEL-28 melanoma): 0.542 µM
TGI (SK-MEL-5 melanoma): < 0.0338 µM
TGI (SK-OV-3 ovarian): 0.58 µM
TGI (SN12C renal): < 0.0135 µM
TGI (SNB-19 CNS): < 0.0291 µM
TGI (SNB-75 CNS): < 0.0299 µM
TGI (SNB-78 CNS): 0.394 µM
TGI (SR leukemia): < 0.0204 µM
TGI (SW-620 colon): 0.28 µM
TGI (T-47D breast): < 0.0105 µM
TGI (TK-10 renal): < 0.0389 µM
TGI (U251 CNS): < 0.0345 µM
TGI (UACC-257 melanoma): < 0.01 µM
TGI (UACC-62 melanoma): < 0.0434 µM
TGI (UO-31 renal): 0.0859 µM
TGI (XF 498 CNS): 0.0819 µM
